Format in all cases: functional, cell-based
In experiment [1] the test system is MCF7. As to the kind of experiment: Cytotoxicity against human MCF7 cells.
For experiment [2], the system named is LNCaP. Description: Cytotoxicity against human LNCAP cells.
For experiment [3], the system named is DU-145. As to the kind of experiment: Cytotoxicity against human DU145 cells.
Experiment [4] has as its system MIA PaCa-2. As to the kind of experiment: Cytotoxicity against human MIAPaCa2 cells.
The subject of experiment [5] is PC-3. Description: Cytotoxicity against human PC3 cells.
Experiment [6] relates to MDA-MB-231. As to the kind of experiment: Cytotoxicity against human MDA-MB-231 cells.

We go through 14 molecules from ChEMBL document CHEMBL1833853, “Synthesis and in-vitro anticancer activity of 3,5-bis(indolyl)-1,2,4-thiadiazoles” (Bioorg Med Chem Lett, 2011).

Where only a bound is given, the exact number is not on record here.

Take `c1ccc2c(Cc3nsc(Cc4c[nH]c5ccccc45)n3)c[nH]c2c1`: the IC50 came out at 40.5 µM in experiment [1]; 43.3 µM in experiment [2]; 51.2 µM in experiment [3]; 31.3 µM in experiment [4]; 44.2 µM in experiment [5]; 65 µM in experiment [6].

Take `COc1ccc2c(c1)c(-c1nsc(-c3cn(C)c4ccc(OC)cc34)n1)cn2C`: the IC50 stood at 79.9 µM in experiment [1]; 111 µM in experiment [2]; 137 µM in experiment [3]; 177 µM in experiment [4]; 270 µM in experiment [5]; 95.7 µM in experiment [6].

Regarding `COc1ccc2c(-c3nsc(-c4c[nH]c5cc(OC)ccc45)n3)c[nH]c2c1`, the IC50 in experiment [1] came out at 35.3 µM; in experiment [2] it was 35.8 µM; in experiment [3], 42.3 µM; in experiment [4], 95.3 µM; in experiment [5], 76.1 µM; in experiment [6], 44.3 µM.

On to `COc1ccc2[nH]cc(-c3nsc(-c4c[nH]c5ccc(OC)cc45)n3)c2c1`, for which the IC50 was 424 µM in experiment [1]; 295 µM in experiment [2]; 206 µM in experiment [3]; 45.8 µM in experiment [4]; 224 µM in experiment [5]; above 1000 µM in experiment [6].

In the case of `Cn1c(-c2nsc(-c3cc4ccccc4n3C)n2)cc2ccccc21`, the IC50 in experiment [1] was 66.4 µM; in experiment [2], 207 µM; in experiment [3], above 1000 µM; in experiment [4], 260 µM; in experiment [5], 432 µM; in experiment [6], above 1000 µM.

As to `O=[N+]([O-])c1ccc2[nH]cc(-c3nsc(-c4c[nH]c5ccc([N+](=O)[O-])cc45)n3)c2c1`, the IC50 in experiment [1] is 83.5 µM; in experiment [2] it was 177 µM; in experiment [3], 325 µM; in experiment [4], 187 µM; in experiment [5], 680 µM; in experiment [6], 98.6 µM.

With `c1ccc2c(-c3nsc(-c4c[nH]c5ccccc45)n3)c[nH]c2c1`, the IC50 in experiment [1] was 143 µM; in experiment [2] it was above 1000 µM; in experiment [3] it was 248 µM; in experiment [4] it was above 1000 µM; in experiment [5] it was above 1000 µM; in experiment [6] it was 702 µM.

For `c1ccc2[nH]c(-c3nsc(-c4cc5ccccc5[nH]4)n3)cc2c1`, the IC50 is 162 µM in experiment [1]; 247 µM in experiment [2]; 453 µM in experiment [3]; 102 µM in experiment [4]; 326 µM in experiment [5]; above 1000 µM in experiment [6].

Turning to `Cn1cc(-c2nsc(-c3cn(C)c4ccc(Br)cc34)n2)c2cc(Br)ccc21`, the IC50 in experiment [1] is 63.6 µM; in experiment [2], above 1000 µM; in experiment [3] it was above 1000 µM; in experiment [4] it was above 1000 µM; in experiment [5] it was above 1000 µM; in experiment [6], above 1000 µM.

With `Cn1cc(-c2nsc(-c3cn(C)c4ccccc34)n2)c2ccccc21`, the IC50 was found to be 177 µM in experiment [1]; 226 µM in experiment [2]; 64 µM in experiment [3]; 185 µM in experiment [4]; 92.3 µM in experiment [5]; 236 µM in experiment [6].

Turning to `COc1ccc2c(c1)c(-c1nsc(-c3cn(Cc4ccc(Cl)cc4)c4ccc(OC)cc34)n1)cn2Cc1ccc(Cl)cc1`, the IC50 in experiment [1] turned out to be 32.1 µM; in experiment [2] it was 14.6 µM; in experiment [3], 370 µM; in experiment [4] it was 21.2 µM; in experiment [5] it was 21.4 µM; in experiment [6] it was 67.9 µM.

Turning to `Brc1ccc2[nH]cc(-c3nsc(-c4c[nH]c5ccc(Br)cc45)n3)c2c1`, the IC50 in experiment [1] was 31.3 µM; in experiment [2], 159 µM; in experiment [3], 56.7 µM; in experiment [4], 124 µM; in experiment [5], 162 µM; in experiment [6], 100 µM.

Regarding `Clc1ccc(Cn2cc(-c3nsc(-c4cn(Cc5ccc(Cl)cc5)c5ccccc45)n3)c3ccccc32)cc1`, the IC50 in experiment [1] is above 1000 µM; in experiment [2] it was 413 µM; in experiment [3] it was above 1000 µM; in experiment [4], 101 µM; in experiment [5], above 1000 µM; in experiment [6] it was above 1000 µM.

For `Brc1ccc2c(-c3nsc(-c4c[nH]c5cc(Br)ccc45)n3)c[nH]c2c1`, the IC50 in experiment [1] is 39.2 µM; in experiment [2], 80.1 µM; in experiment [3] it was 30.2 µM; in experiment [4], 83 µM; in experiment [5], 132 µM; in experiment [6] it was 38.3 µM.
